Square brackets hold non-standard residues; d marks the D form. Peptide text beside a SMILES is read from it. Oic = O=C(O)[C@@H]1C[C@@H]2CCCC[C@@H]2N1; d2Nal = N[C@H](Cc1ccc2ccccc2c1)C(=O)O; αMeF = C[C@](N)(Cc1ccccc1)C(=O)O; Orn = NCCC[C@H](N)C(=O)O
What was measured:
[1] = Ex vivo stability in rat tissue extracts from liver, lung and kidney (HPLC); assay type: in vitro ADME; conditions: Wistar, after 24 hours, read-out: parent remaining
Experimental: Liver, lung and kidneys were collected from Wistar rats and resuspended in nine volume of PBS. The tissues were homogenized for 3×15 sec. on ice with a Polytron homogenizer and were centrifuged at 3000 rpm for 15 min. at 4° C. The supernatant was collected and kept at −80° C. until used.
Stability studies were initiated by adding the peptide […] to 50–100 μl of either plasma, serum or extract (10–100 μM final concentration) and incubated for 10 min to 24 hours at 37° C. The reaction was stopped by the addition of ice-cold acetonitrile (75% final concentration) containing 10 μM Lys-desArg^9BK (which serves as an internal control). The samples were vortexed and centrifuged at 13000 rpm for 20 min at 4° C. in a microfuge. The clear supernatant was transferred to a 1 ml tube and the samples were evaporated to dryness by lyophilisation. Finally, the samples were resuspended in 50 μl of HPLC-grade water.
Quantitative analysis of the extracted compound and standard controls was carried out using an Agilent reverse-phase HPLC (model 1100) coupled to a 4.6×150 mm Zorbax 300SB-C18 column (5 μm particle size) and equipped with a diode array detector. […] The elution positions and quantification of compounds were determined by following the absorbance at 226 nm. […]

STZ diabetic mice [2] = assay: Tail flick test, type-1 diabetic hyperalgesia; assay type: in vivo; conditions: STZ diabetic mice, i.p., at time of maximal inhibition (10 min)
Experimental: (§1) Male CD-1 mice weighting between 25–30 g (Charles River Breeding Laboratory, St-Constant, QC, Canada) were used. The mice were housed four by cage with free access to food and water. They were maintained under conditions of standard lighting, (alternating 12-h light/dark cycle), temperature (22±0.5° C.) and humidity (60±10%) with food and water available at libitum. Animals were used only once in a given experiment. Experiments were conducted between 10:00 and 18:00 h.
(§2) Streptozotocin (Pharmacia & Upjohn Incorporation, Mississauga, ON, Canada) was dissolved in saline at a pH of 4.5 and administered to mice i.p. The BKB1 agonist desArg^9BK and compound c were dissolved in saline and administered to mice i.p.
(§3) Insulin-dependent diabetes mellitus (IDDM) was induced in mice using STZ. Male CD-1 mice were given a single high i.p. dose of STZ (200 mg/kg) (McEvoy et al., 1984, J Clin Invest 74, 715–722). […] Blood glucose levels were determined with an automatic analyzer (Glucometer Elite XL, Bayer Incorporation, Toronto, Ontario, Canada) using glucose oxidase/potassium ferricyanide reagent strips. […]
The tail flick test of D'Amour and Smith (D'Amour and Smith, 1941, J Pharmacol Exp Ther 72, 74–79) modified for mice was used. […] The radiant light is focussed on a blackened spot in the mid region of the animal's tail (2–3 cm from the tip of the tail) and the latency between the application of the stimulation light and the flicking of the animal's tail is recorded. When the animal flicks its tail, its exposes a photocell in the apparatus immediately below the tail and the instrument is automatically stopped and the time is recorded. […]
(§4) The effect of the selected drugs on nociception was determined by converting the hot plate, the plantar stimulation, the tail immersion or the tail flick responses from latencies into MPE (Maximum Percent Effect) according to the following equation (Bhargava and Zhao, 1996, Neuropeptides, 30, 219–223): […]

STZ diabetic mice [3] = assay: Hot plate test, type-1 diabetic hyperalgesia; assay type: in vivo; conditions: STZ diabetic mice, i.p., at time of maximal inhibition (20 min)
Experimental: as §1, §2, §3
The hot plate test was adapted from the technique of Eddy and Leimbach (1953, J Pharmacol Exp Ther 107, 385–389). […] When the pain threshold is reached the animal starts to react by licking its hind paw or to jump, and the reaction time is recorded with a built-in timer, with a maximum cut-off time of 30 s to avoid tissue damage. […]
as §4
In all tests, pre-treatment latencies were determined three times with an interval of 24 h starting three days before the injection of STZ or saline and the mean was calculated in order to obtain stable pre-drug response latency. […]

## CC[C@H](C)[C@H](NC(=O)[C@@H](Cc1ccc2ccccc2c1)NC(=O)[C@H](CO)NC(=O)[C@](C)(Cc1ccccc1)NC(=O)CNC(=O)[C@@H]1CCCN1C(=O)[C@@H]1C[C@@H]2CCCC[C@@H]2N1C(=O)[C@H](CCCNC(=N)N)NC(=O)[C@H](CCCN)NC(C)=O)C(=O)O [compound c, Ac-Orn[Oic^2,(α-Me)Phe^5,D-βNal^7,Ile^8]desArg^9BK] (Ac-[Orn]R[Oic]PG[αMeF]S[d2Nal]I-OH)
[1]
  remaining at 24 h: > 75%
STZ diabetic mice [2]
  ID50: 0.072 ± 0.002 mg/kg
STZ diabetic mice [3]
  ID50: 0.078 ± 0.003 mg/kg

From patent US7211566B2 (Universite De Sherbrooke, priority 2003, dated 2007)
